The record followed here is PMC9202051 (ACS Omega, 2022).

One series in a line: MTT cell viability assay. The conditions noted are these: human, blood mononuclear cells (MNCs). It counts as cell-based, human. In general terms: Tetrazolium dyes change colour on reduction, which living cells bring about.
For another series, the target named is T1, soybean 15-LOX (Glycine max, UniProt P08170).
T1 sequence (P08170 1-839): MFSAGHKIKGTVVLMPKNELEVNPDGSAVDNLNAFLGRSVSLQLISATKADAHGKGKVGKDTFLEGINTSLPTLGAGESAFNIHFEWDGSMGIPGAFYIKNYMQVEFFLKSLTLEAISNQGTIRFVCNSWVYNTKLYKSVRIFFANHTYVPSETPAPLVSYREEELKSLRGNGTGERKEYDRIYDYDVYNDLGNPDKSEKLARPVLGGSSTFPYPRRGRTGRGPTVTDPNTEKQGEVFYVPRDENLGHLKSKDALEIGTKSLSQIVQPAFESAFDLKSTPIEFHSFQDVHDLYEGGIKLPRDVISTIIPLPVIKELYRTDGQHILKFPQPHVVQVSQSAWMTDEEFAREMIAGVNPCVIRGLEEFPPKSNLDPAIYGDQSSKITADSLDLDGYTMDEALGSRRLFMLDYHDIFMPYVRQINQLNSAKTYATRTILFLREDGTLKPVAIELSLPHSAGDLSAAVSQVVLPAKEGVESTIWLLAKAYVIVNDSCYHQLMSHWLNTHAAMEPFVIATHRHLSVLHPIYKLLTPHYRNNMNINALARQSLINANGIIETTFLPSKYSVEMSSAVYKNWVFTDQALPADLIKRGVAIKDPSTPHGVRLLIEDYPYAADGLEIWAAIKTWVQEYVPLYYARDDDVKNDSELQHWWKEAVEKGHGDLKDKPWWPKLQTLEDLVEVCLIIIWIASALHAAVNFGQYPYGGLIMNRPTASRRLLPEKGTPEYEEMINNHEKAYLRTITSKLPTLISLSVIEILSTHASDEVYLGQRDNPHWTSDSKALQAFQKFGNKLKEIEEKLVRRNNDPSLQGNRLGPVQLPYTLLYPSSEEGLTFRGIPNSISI
In words: soybean 15-LOX inhibition assay. It counts as biochemical. Conditions: for inhibition at 250 µM: read-out: inhibition (%) at 0.25 mM.

Series [1] deals with blood mononuclear cells (MNCs). In words: MTT cell viability assay. It counts as cell-based, human. The conditions noted are these: MTT assay, 0.25 mM, mononuclear cells; mean ± SEM, n = 3.

Where two headings read alike, the source gives them in different places.

As to `O=P1(N(CCCl)CCCl)NCCCO1` (stereo not shown) [cyclophosphamide, reference compound], the viability at 0.25 mM in “MTT cell viability assay” was determined as 56.5 ± 1.9%. On to `O=c1cc(-c2ccccc2)oc2cc(O)c(O)c(O)c12` [baicalein, reference compound], for which the half-inhibitory concentration (IC50) against soybean 15-LOX worked out at 2.24 ± 0.13 µM. As for `COc1cc(/C=C/C(=O)CC(=O)/C=C/c2ccc(O)c(OC)c2)ccc1O` [curcumin, reference compound], the viability at 0.25 mM in the series “MTT cell viability assay” stood at 73.9 ± 1.5%.

Regarding `O=c1c(O)c(-c2ccc(O)c(O)c2)oc2cc(O)cc(O)c12` [quercetin, reference compound], the inhibition at 250 µM on soybean 15-LOX worked out at 92.6 ± 1.24%. Consider `CCCNC(=O)C(C)Sc1nnc(-c2ccc(Cl)cc2)n1Cc1ccco1` (stereo not shown) [Compound 7b, 2-((5-(4-Chlorophenyl)-4-(furan-2-ylmethyl)-4H-1,2,4-triazol-3-yl)thio)-N-n-propylmethylacetamide], for which, at soybean 15-LOX, the IC50 was 26.3 ± 0.62 µM and the inhibition at 250 µM is 89.3 ± 1.55%. Moreover, in “MTT cell viability assay”, the viability at 0.25 mM was found to be 90.1 ± 1.1%. For the compound “2-((5-(4-Chlorophenyl)-4-(furan-2-ylmethyl)-4H-1,2,4-triazol-3-yl)thio)-N-(m-tolyl) Methylacetamide [Compound 7f]”, the “inhibition (%) at 0.25 mM” value against soybean 15-LOX (0.25 mM, mean ± SEM, n = 3) was 82.13 ± 1.85%. The compound also gave an IC50 on soybean 15-LOX (mean ± SEM, n = 3) of 45.4 ± 0.72 µM. For the same compound, in series [1], the “cell viability (%) at 0.25 mM” value is on record as 90.21 ± 1.2%.

As usually defined, the viability is a read-out of living cells in per cent, often relative to untreated cells. The term IC50 denotes the point on the concentration scale where inhibition reaches its midpoint. The low end stands for greater potency in that assay, the high end for weaker potency in that assay. One may read the inhibition as the share of the control response that was lost under treatment.
